{"source": "PubChem BioAssay AID602351", "about": "(The Scripps Research Institute Molecular Screening Center, 2012)", "experiment_in_all_cases": "mouse tissue hydrolase off-target profiling – ABPP MudPIT, LC-MS, ABHD6 analysis, in vivo study for DAGLb inhibitor project, late-stage follow-up (AID 602351)", "key": {"Tpp2": {"system": "Tpp2", "conditions": "serine hydrolase spectral counts, stronger effect = lower value"}, "Acot2": {"system": "Acot2", "conditions": "serine hydrolase spectral counts, stronger effect = lower value"}, "[1]": {"target": "Acyl-protein thioesterase 1 (Mus musculus) (UniProt P97823)", "sequence (P97823 whole entry, looked up)": "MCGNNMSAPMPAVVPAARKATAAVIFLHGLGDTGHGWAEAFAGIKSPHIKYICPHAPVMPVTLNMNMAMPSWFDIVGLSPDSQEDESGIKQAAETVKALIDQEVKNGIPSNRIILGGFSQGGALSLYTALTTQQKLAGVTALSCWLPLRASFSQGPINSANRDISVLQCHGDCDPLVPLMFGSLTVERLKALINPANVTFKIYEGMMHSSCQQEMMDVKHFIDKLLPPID", "conditions": "serine hydrolase spectral counts"}, "Fam108b": {"system": "Fam108b", "conditions": "serine hydrolase spectral counts, stronger effect = lower value"}, "[2]": {"target": "Platelet-activating factor acetylhydrolase (Mus musculus) (UniProt Q60963)", "sequence (Q60963 whole entry, looked up)": "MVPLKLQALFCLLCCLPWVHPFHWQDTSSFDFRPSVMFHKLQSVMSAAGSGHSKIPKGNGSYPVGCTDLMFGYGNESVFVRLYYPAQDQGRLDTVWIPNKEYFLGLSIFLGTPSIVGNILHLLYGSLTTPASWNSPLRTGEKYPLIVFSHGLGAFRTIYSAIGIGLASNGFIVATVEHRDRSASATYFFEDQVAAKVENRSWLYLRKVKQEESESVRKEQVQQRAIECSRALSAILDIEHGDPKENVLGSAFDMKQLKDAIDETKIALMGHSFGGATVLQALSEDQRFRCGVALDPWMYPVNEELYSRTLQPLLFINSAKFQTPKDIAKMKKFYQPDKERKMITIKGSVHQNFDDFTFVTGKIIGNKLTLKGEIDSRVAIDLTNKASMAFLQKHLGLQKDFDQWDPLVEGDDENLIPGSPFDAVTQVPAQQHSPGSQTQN", "conditions": "serine hydrolase spectral counts"}, "Pafah1b2": {"system": "Pafah1b2", "conditions": "serine hydrolase spectral counts, stronger effect = lower value"}, "[3]": {"target": "Diacylglycerol lipase-beta (Mus musculus) (UniProt Q91WC9)", "sequence (Q91WC9 whole entry, looked up)": "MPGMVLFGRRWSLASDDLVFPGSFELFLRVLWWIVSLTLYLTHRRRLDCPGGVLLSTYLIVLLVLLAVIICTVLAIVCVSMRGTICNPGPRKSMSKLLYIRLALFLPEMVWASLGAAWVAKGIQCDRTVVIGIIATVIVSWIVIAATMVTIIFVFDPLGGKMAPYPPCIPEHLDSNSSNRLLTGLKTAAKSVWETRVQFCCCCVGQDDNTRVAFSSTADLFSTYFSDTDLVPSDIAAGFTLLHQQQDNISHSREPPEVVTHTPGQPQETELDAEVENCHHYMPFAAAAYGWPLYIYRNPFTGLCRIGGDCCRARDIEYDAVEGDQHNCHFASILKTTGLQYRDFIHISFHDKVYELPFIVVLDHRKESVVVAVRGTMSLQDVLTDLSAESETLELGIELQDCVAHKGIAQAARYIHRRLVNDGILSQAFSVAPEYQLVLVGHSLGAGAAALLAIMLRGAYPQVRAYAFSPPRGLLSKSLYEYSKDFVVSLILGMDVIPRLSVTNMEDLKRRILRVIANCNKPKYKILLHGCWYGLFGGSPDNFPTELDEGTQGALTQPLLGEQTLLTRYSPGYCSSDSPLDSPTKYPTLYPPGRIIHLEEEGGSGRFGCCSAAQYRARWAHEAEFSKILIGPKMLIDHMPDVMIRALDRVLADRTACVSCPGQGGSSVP", "conditions": "serine hydrolase spectral counts, Daglb, stronger effect = lower value"}, "Elane": {"system": "Elane", "conditions": "serine hydrolase spectral counts, stronger effect = lower value"}, "Iah1": {"system": "Iah1", "conditions": "serine hydrolase spectral counts, stronger effect = lower value"}, "Abhd11": {"system": "Abhd11", "conditions": "serine hydrolase spectral counts, stronger effect = lower value"}, "Apeh": {"system": "Apeh", "conditions": "serine hydrolase spectral counts, stronger effect = lower value"}, "Pnpla7": {"system": "Pnpla7", "conditions": "serine hydrolase spectral counts, stronger effect = lower value"}, "Dpp4": {"system": "Dpp4", "conditions": "serine hydrolase spectral counts, stronger effect = lower value"}, "Lpl": {"system": "Lpl", "conditions": "serine hydrolase spectral counts, stronger effect = lower value"}, "Abhd12": {"system": "Abhd12", "conditions": "serine hydrolase spectral counts, stronger effect = lower value"}, "[4]": {"target": "Platelet-activating factor acetylhydrolase 2, cytoplasmic (Mus musculus) (UniProt Q8VDG7)", "sequence (Q8VDG7 whole entry, looked up)": "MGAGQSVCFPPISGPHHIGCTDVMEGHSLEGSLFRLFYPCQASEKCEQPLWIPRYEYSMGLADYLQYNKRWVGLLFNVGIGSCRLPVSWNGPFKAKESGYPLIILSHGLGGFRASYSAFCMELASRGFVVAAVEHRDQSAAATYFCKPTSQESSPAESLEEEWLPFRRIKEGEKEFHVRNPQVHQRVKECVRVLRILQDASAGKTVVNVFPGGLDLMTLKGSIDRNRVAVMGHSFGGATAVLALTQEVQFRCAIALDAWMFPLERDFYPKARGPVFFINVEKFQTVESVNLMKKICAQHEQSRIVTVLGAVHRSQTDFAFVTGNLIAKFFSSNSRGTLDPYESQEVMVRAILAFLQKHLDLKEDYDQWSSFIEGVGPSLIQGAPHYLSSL", "conditions": "serine hydrolase spectral counts"}, "Lipe": {"system": "Lipe", "conditions": "serine hydrolase spectral counts, stronger effect = lower value"}, "Pla2g15": {"system": "Pla2g15", "conditions": "serine hydrolase spectral counts, stronger effect = lower value"}, "Pafah1b3": {"system": "Pafah1b3", "conditions": "serine hydrolase spectral counts, stronger effect = lower value"}, "Acot1": {"system": "Acot1", "conditions": "serine hydrolase spectral counts, stronger effect = lower value"}, "[5]": {"target": "Monoacylglycerol lipase ABHD6 (Mus musculus) (UniProt Q8R2Y0)", "sequence (Q8R2Y0 whole entry, looked up)": "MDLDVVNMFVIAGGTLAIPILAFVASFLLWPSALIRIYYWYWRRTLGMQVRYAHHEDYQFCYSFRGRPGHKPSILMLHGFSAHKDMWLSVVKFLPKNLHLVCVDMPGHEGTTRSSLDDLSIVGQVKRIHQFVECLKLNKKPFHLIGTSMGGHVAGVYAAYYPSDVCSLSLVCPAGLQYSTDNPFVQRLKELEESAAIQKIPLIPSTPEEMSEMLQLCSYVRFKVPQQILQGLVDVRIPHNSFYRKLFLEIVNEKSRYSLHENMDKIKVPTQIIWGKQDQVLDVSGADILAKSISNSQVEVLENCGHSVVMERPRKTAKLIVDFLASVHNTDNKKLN", "conditions": "serine hydrolase spectral counts, stronger effect = lower value"}, "KIAA1363": {"system": "KIAA1363", "conditions": "serine hydrolase spectral counts, stronger effect = lower value"}, "Lypla2": {"system": "Lypla2", "conditions": "serine hydrolase spectral counts, stronger effect = lower value"}, "Dpp8": {"system": "Dpp8", "conditions": "serine hydrolase spectral counts, stronger effect = lower value"}, "Aoah": {"system": "Aoah", "conditions": "serine hydrolase spectral counts, stronger effect = lower value"}, "Ctsg": {"system": "Ctsg", "conditions": "serine hydrolase spectral counts, stronger effect = lower value"}, "Ppt2": {"system": "Ppt2", "conditions": "serine hydrolase spectral counts, stronger effect = lower value"}, "Magl": {"system": "Magl", "conditions": "serine hydrolase spectral counts, stronger effect = lower value"}, "Fasn": {"system": "Fasn", "conditions": "serine hydrolase spectral counts, stronger effect = lower value"}, "Dpp9": {"system": "Dpp9", "conditions": "serine hydrolase spectral counts, stronger effect = lower value"}, "Prepl": {"system": "Prepl", "conditions": "serine hydrolase spectral counts, stronger effect = lower value"}, "Pnpla6": {"system": "Pnpla6", "conditions": "serine hydrolase spectral counts, stronger effect = lower value"}, "Prcp": {"system": "Prcp", "conditions": "serine hydrolase spectral counts, stronger effect = lower value"}, "Gzma": {"system": "Gzma", "conditions": "serine hydrolase spectral counts, stronger effect = lower value"}, "Dpp7": {"system": "Dpp7", "conditions": "serine hydrolase spectral counts, stronger effect = lower value"}, "[6]": {"target": "Palmitoyl-protein thioesterase ABHD10, mitochondrial (Mus musculus) (UniProt Q6PE15)", "sequence (Q6PE15 whole entry, looked up)": "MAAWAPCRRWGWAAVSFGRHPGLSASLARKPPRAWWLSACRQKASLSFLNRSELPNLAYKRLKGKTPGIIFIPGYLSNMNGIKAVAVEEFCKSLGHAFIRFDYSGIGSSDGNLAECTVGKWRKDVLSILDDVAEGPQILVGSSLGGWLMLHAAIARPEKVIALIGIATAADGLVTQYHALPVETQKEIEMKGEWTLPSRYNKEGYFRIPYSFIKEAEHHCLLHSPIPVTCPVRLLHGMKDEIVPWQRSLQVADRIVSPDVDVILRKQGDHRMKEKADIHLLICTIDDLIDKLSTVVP", "conditions": "serine hydrolase spectral counts, stronger effect = lower value"}, "Ctsa": {"system": "Ctsa", "conditions": "serine hydrolase spectral counts, stronger effect = lower value"}, "Lipa": {"system": "Lipa", "conditions": "serine hydrolase spectral counts, stronger effect = lower value"}, "[7]": {"conditions": "significance of hydrolase inhibition"}}, "note": "Calls of active or inactive are those of the source. The rule behind the calls is not given here."}
{"smiles": "COc1ccc(-c2ccc(-c3cn(C(=O)N4CCCCC4c4ccccc4)nn3)cc2)cc1", "note": "(stereo unspecified)", "values": [{"measurement": "spectral counts, test compound", "setting": "Tpp2", "result": "21 (inactive)"}, {"measurement": "p value vs vehicle", "setting": "Tpp2; [7]", "result": 0.018}, {"measurement": "spectral counts, test compound", "setting": "Acot2", "result": "41.7 (inactive)"}, {"measurement": "p value vs vehicle", "setting": "Acot2; [7]", "result": 0.041}, {"measurement": "spectral counts, test compound", "setting": "[1]; Lypla1, stronger effect = lower value", "result": "51.7 (inactive)"}, {"measurement": "p value vs vehicle", "setting": "[1]; Lypla1, significance of hydrolase inhibition, stronger effect = lower value", "result": 0.676}, {"measurement": "spectral counts, test compound", "setting": "Fam108b", "result": "13.7 (inactive)"}, {"measurement": "p value vs vehicle", "setting": "Fam108b; [7]", "result": 0.018}, {"measurement": "spectral counts, test compound", "setting": "[2]; Pla2g7, stronger effect = lower value", "result": "17.7 (inactive)"}, {"measurement": "p value vs vehicle", "setting": "[2]; Pla2g7, significance of hydrolase inhibition, stronger effect = lower value", "result": 0.115}, {"measurement": "spectral counts, test compound", "setting": "Pafah1b2", "result": "28.3 (inactive)"}, {"measurement": "p value vs vehicle", "setting": "Pafah1b2; [7]", "result": 0.6}, {"measurement": "spectral counts, test compound", "setting": "[3]", "result": "13.7 (inactive)"}, {"measurement": "p value vs vehicle", "setting": "[3]; [7]", "result": 0.28}, {"measurement": "spectral counts, test compound", "setting": "Elane", "result": "28.3 (inactive)"}, {"measurement": "p value vs vehicle", "setting": "Elane; [7]", "result": 0.242}, {"measurement": "spectral counts, test compound", "setting": "Iah1", "result": "5.67 (inactive)"}, {"measurement": "p value vs vehicle", "setting": "Iah1; [7]", "result": 0.442}, {"measurement": "spectral counts, test compound", "setting": "Abhd11", "result": "6.67 (inactive)"}, {"measurement": "p value vs vehicle", "setting": "Abhd11; [7]", "result": 0.422}, {"measurement": "spectral counts, test compound", "setting": "Apeh", "result": "148 (inactive)"}, {"measurement": "p value vs vehicle", "setting": "Apeh; [7]", "result": 0.187}, {"measurement": "spectral counts, test compound", "setting": "Pnpla7", "result": "34 (inactive)"}, {"measurement": "p value vs vehicle", "setting": "Pnpla7; [7]", "result": 0.656}, {"measurement": "spectral counts, test compound", "setting": "Dpp4", "result": "42 (inactive)"}, {"measurement": "p value vs vehicle", "setting": "Dpp4; [7]", "result": 0.1}, {"measurement": "spectral counts, test compound", "setting": "Lpl", "result": "58.3 (inactive)"}, {"measurement": "p value vs vehicle", "setting": "Lpl; [7]", "result": 0.211}, {"measurement": "spectral counts, test compound", "setting": "Abhd12", "result": "24.3 (inactive)"}, {"measurement": "p value vs vehicle", "setting": "Abhd12; [7]", "result": 0.363}, {"measurement": "spectral counts, test compound", "setting": "[4]; Pafah2, stronger effect = lower value", "result": "16 (inactive)"}, {"measurement": "p value vs vehicle", "setting": "[4]; Pafah2, significance of hydrolase inhibition, stronger effect = lower value", "result": 0.202}, {"measurement": "spectral counts, test compound", "setting": "Lipe", "result": "39.7 (inactive)"}, {"measurement": "p value vs vehicle", "setting": "Lipe; [7]", "result": 0.014}, {"measurement": "spectral counts, test compound", "setting": "Pla2g15", "result": "29 (inactive)"}, {"measurement": "p value vs vehicle", "setting": "Pla2g15; [7]", "result": 0.012}, {"measurement": "spectral counts, test compound", "setting": "Pafah1b3", "result": "21.7 (inactive)"}, {"measurement": "p value vs vehicle", "setting": "Pafah1b3; [7]", "result": 0.409}, {"measurement": "spectral counts, test compound", "setting": "Acot1", "result": "25.7 (inactive)"}, {"measurement": "p value vs vehicle", "setting": "Acot1; [7]", "result": 0.22}, {"measurement": "spectral counts, test compound", "setting": "[5]", "result": 0.667}, {"measurement": "p value vs vehicle", "setting": "[5]; [7]", "result": 0.006}, {"measurement": "spectral counts, test compound", "setting": "KIAA1363", "result": "167 (inactive)"}, {"measurement": "p value vs vehicle", "setting": "KIAA1363; [7]", "result": 0.699}, {"measurement": "spectral counts, test compound", "setting": "Lypla2", "result": "89.3 (inactive)"}, {"measurement": "p value vs vehicle", "setting": "Lypla2; [7]", "result": 0.688}, {"measurement": "spectral counts, test compound", "setting": "Dpp8", "result": "31 (inactive)"}, {"measurement": "p value vs vehicle", "setting": "Dpp8; [7]", "result": 0.639}, {"measurement": "spectral counts, test compound", "setting": "Aoah", "result": "14.7 (inactive)"}, {"measurement": "p value vs vehicle", "setting": "Aoah; [7]", "result": 0.53}, {"measurement": "spectral counts, test compound", "setting": "Ctsg", "result": "36.3 (inactive)"}, {"measurement": "p value vs vehicle", "setting": "Ctsg; [7]", "result": 0.101}, {"measurement": "spectral counts, test compound", "setting": "Ppt2", "result": "5.67 (inactive)"}, {"measurement": "p value vs vehicle", "setting": "Ppt2; [7]", "result": 0.451}, {"measurement": "spectral counts, test compound", "setting": "Magl", "result": "18 (inactive)"}, {"measurement": "p value vs vehicle", "setting": "Magl; [7]", "result": 0.937}, {"measurement": "spectral counts, test compound", "setting": "Fasn", "result": "75.7 (inactive)"}, {"measurement": "p value vs vehicle", "setting": "Fasn; [7]", "result": 0.026}, {"measurement": "spectral counts, test compound", "setting": "Dpp9", "result": "62 (inactive)"}, {"measurement": "p value vs vehicle", "setting": "Dpp9; [7]", "result": 0.978}, {"measurement": "spectral counts, test compound", "setting": "Prepl", "result": "4.33 (inactive)"}, {"measurement": "p value vs vehicle", "setting": "Prepl; [7]", "result": 0.101}, {"measurement": "spectral counts, test compound", "setting": "Pnpla6", "result": "4 (inactive)"}, {"measurement": "p value vs vehicle", "setting": "Pnpla6; [7]", "result": 0.028}, {"measurement": "spectral counts, test compound", "setting": "Prcp", "result": "99.7 (inactive)"}, {"measurement": "p value vs vehicle", "setting": "Prcp; [7]", "result": 0.659}, {"measurement": "spectral counts, test compound", "setting": "Gzma", "result": "5.33 (inactive)"}, {"measurement": "p value vs vehicle", "setting": "Gzma; [7]", "result": 0.275}, {"measurement": "spectral counts, test compound", "setting": "Dpp7", "result": "16.3 (inactive)"}, {"measurement": "p value vs vehicle", "setting": "Dpp7; [7]", "result": 0.826}, {"measurement": "spectral counts, test compound", "setting": "[6]", "result": "13.3 (inactive)"}, {"measurement": "p value vs vehicle", "setting": "[6]; [7]", "result": 0.911}, {"measurement": "spectral counts, test compound", "setting": "Ctsa", "result": "86.7 (inactive)"}, {"measurement": "p value vs vehicle", "setting": "Ctsa; [7]", "result": 0.035}, {"measurement": "spectral counts, test compound", "setting": "Lipa", "result": "3 (inactive)"}, {"measurement": "p value vs vehicle", "setting": "Lipa; [7]", "result": 0.482}]}
